Test results published in patent publication US10557129B2, “Peptides derived from human PCSK9 catalytic domain and uses thereof for promoting LDL-R activity” (Pronasci Inc., priority 2015, dated 2020).

Assays:
LDL-R [1] = target: T1, LDL-R (Homo sapiens, UniProt P01130); conditions: added exogenously to growing HepG2 cells; cited from earlier work
T1 construct: western blot analyses for endogenous LDL-R; endogenous in cells; host or cells: HepG2

[2] = Model fluorescence quenching of FI-Bio-Ahx-Lys-Methyl ester (IIId) by biotin-binding proteins; conditions: for maximal quenching of fluorescence intensity of (IIId): data not shown; for quenching of fluorescence intensity of (IIId): 8:1 molar ratio protein:(IIId), FIGS. 7A, 7B
Experimental: FIG. 7A illustrates fluorescence scan spectroscopy of FI-Bio-Ahx-Lys-Methyl ester (IIId) in presence of avidin.
FIG. 7B illustrates fluorescence scan spectroscopy of FI-Bio-Ahx-Lys-Methyl ester (IIId) in presence of insulin as control peptide. […] For each experiment 5 μl of 0.5 mM (IIId) peptide in water was used.
Previously a number of studies reported that the interaction between two ligands one of which is fluorescence labeled can be followed by studying fluorescence intensity. In general the fluorescence intensity is suppressed with or without shift of emission peak position when there is a strong interaction between the two ligands. Greater the suppression or quenching of fluorescence intensity, greater is the strength of binding. In order to further confirm the above notion, a study was carried out by using a fixed concentration of fluorescent biotinylated peptide (IIId) and increasing doses of avidin protein. […] These avidin analogs with varying binding affinity towards biotin have been developed and made available through commercial organizations [Polyscience Inc., Technical Data Sheet Report-779]. […] This study confirms that fluorescence quenching is an indicator of binding between two ligands one of which is fluorescently labeled.

LDL-R [3] = target: T1, LDL-R; experiment: LDL-R level in HepG2 cells by western blot of whole cell lysates; format: cell-based
Experimental: (§1) FIG. 13 illustrates (A) Western blot analyses showing the quantitation of LDL-R and PCSK9 levels under various conditions in HepG2 cells. These are western blot figures showing the effect of externally added FI-EGF-A peptide on exogenous levels of LDL-R and PCSK9 in growing HepG2 cells. The cells were harvested after 24 h and whole cell lysates were used for analysis of LDL-R, PCSK9 and actin levels both for control sample (DMSO) and FI-EGF-A done in duplicates. Actin was used as a house keeping control protein for quantitation purpose. (B): Rescue effect of FI-EGF-A peptide added in increasing concentration levels on LDL-R in growing HuH7 cells in the presence of added rec-PCSK9 protein. Rec-PCSK9 was incubated with various amounts of FI-EGF-A for 3 h at room temp and then applied to cells growing in 2 mL media to the concentrations as indicated in the figure. The cells were harvested 7 h later.
(§2) FIG. 14 illustrates Western blots showing PCSK9 and LDL-R levels in the presence of various PCSK9 catalytic peptides in HepG2 cell. […]
(§3) The number passages of cell lines used were 6-8 times until they are at least 80% confluent as determined by microscope. […] All culture samples including whole cell lysate (WCL) were analysed for their protein contents using Pierce BCA (Bicinchoninic acid) reagent method or Bradford assay (Bio-Rad #500-0205) as described later.
(§4) In general 20 μg of WCLs derived from various peptide treated HepG2 cell experiments was resolved by conventional 12% SDS-PAGE (Laemmli, 1970 #2). Resolved samples were then transferred to polyvinylidene fluoride (Bio-Rad #162-0177) and probed for LDL-R (R&D Systems #AF2148), hPCSK9 (Circulex #CY-M1033), Transferrin Recepter (TR) (Invitrogen #13-6800), αβ-actin-HRP (Horse Radish Peroxidase) (abcam #ab49900) and αFLAG-HRP (abcam #1238) primary antibodies and detected with α goat-HRP (abcam #ab6741) or a mouse-HRP (Bio-Rad #172-1011) secondary antibodies and visualized on a Bio-Rad versa dock imaging system using Clarity ECL Western Substrate (Bio-Rad #170-5060). […]

LDL-R [4] = experiment: Rescue of LDL-R level in cells after addition of rec-PCSK9 protein (HuH7); format: cell-based, human
Experimental: as §1, with “Rec-PCSK9 was incubated with various amounts of FI-EGF-A for 3 h at room temp and then applied to cells growing in 2 mL media to the concentrations as indicated in the figure. The cells were harvested 7 h later.” left out
as §4

PCSK9 = PCSK9 level in HepG2 cells by western blot of whole cell lysates; format: cell-based, human; conditions: HepG2, 12 μg/ml, 24 h; FIG. 13A
Experimental: as §1, §2
as §3, with “later. […]” for “later.”

[5] = target: T2, recombinant hPCSK9 wild type (Homo sapiens, UniProt Q8NBP7); experiment: SDS-PAGE fluorescence / western blot binding of FI-EGF-A to recombinant FLAG-hPCSK9; conditions: 5 μg FI-EGF-A + 1 μg rec-hPCSK9 WT, 2 h room temperature; fluorescent band at ~65 kDa; FIG. 12
T2 construct: complex formation between 60 kDa rec-hPCSK9 mature form with 5 kDa FI-EGF-A; made in house
Experimental: FIG. 12 illustrates SDS-Gel electrophoresis of FI-EGF-A peptide in presence and absence of recombinant hPCSK9 protein. 5 μg of FI-EGF-A (Ib) was incubated with 1 μg rec-hPCSK9 wild type (WT) for 2 h at room temperature. The samples were resolved in 10% SDS PAGE. Left: Fluorescence detection; Right: Western blot using anti-FLAG as primary antibody. There is a fluorescence positive band around 65 kDa (a mobility shift by ˜5 kDa) shown by thick arrow indicating complex formation between 60 kDa rec-hPCSK9 mature form with 5 kDa FI-EGF-A (Ib) (Left panel). […] It is also noticed that after incubation with FI-EGF-A peptide, the 74 kDa PCSK9 protein is not recognized by anti-FLAG antibody while the 60 kDa hPCSK9 protein is still recognized but with reduced potency. […]
Binding assays of various PCSK9 peptides were carried out by incubating 15 μg of each peptide (˜0.008 mM) with 20 μg of FL-EGF-A in a final volume of 20 μl of 25 mM HEPES (pH 7.4), 150 mM NaCl, 2 mM CaCl2 for 2 h at 37° C. Similar study was also performed using recPCSK9 wild type as well as D/Y variants against FI-EGF-A. Each sample along with the control without any added peptide was assessed for any binding between FI-EGF-A and peptide using fluorescence study, Mass spectrometry and Native gel studies […]

[6] = Molecular Probes handbook; read-out: Kd with biotin; cited from earlier work

T1 sequence (P01130 22-860): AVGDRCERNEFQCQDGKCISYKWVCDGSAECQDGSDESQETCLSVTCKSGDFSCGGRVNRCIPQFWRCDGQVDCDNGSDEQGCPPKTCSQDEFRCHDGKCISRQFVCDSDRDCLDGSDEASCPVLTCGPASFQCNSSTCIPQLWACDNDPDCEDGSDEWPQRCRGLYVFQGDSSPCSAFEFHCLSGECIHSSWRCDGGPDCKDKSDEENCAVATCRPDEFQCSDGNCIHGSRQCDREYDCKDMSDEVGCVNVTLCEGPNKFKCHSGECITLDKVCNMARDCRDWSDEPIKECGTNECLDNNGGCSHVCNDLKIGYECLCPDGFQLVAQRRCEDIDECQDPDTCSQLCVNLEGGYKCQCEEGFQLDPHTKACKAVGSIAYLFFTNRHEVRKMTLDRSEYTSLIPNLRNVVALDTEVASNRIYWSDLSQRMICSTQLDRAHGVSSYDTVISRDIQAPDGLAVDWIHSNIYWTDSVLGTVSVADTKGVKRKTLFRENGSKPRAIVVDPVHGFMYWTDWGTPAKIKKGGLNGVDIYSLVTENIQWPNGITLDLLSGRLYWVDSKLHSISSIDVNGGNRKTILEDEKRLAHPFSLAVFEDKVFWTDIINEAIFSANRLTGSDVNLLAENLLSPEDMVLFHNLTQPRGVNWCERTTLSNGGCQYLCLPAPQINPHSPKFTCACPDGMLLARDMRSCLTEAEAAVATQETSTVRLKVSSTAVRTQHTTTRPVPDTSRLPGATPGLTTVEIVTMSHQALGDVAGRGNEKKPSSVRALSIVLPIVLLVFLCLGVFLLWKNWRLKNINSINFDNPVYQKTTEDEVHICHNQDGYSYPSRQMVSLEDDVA
T2 sequence (Q8NBP7 153-692): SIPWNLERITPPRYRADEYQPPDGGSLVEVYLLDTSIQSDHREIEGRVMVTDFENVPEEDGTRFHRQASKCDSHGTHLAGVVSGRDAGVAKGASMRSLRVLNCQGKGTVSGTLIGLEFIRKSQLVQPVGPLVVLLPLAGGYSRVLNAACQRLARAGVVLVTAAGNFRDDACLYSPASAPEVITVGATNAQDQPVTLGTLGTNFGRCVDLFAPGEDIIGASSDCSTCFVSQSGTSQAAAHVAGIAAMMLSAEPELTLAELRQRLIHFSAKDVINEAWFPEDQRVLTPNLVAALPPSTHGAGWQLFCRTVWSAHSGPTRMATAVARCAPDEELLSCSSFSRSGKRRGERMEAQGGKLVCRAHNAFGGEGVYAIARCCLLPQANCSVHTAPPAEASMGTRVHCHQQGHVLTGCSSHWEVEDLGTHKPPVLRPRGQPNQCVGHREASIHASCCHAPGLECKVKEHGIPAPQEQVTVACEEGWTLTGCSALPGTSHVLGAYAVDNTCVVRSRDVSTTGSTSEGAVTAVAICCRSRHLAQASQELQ
T2 sequence (Q8NBP7 31-152 partner limits assumed): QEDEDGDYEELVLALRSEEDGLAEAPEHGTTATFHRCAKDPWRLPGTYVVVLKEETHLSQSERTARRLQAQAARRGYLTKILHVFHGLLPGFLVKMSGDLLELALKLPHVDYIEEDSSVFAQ

Substance: (aa181-200): peptide of catalytic segment of hPCSK9 (aa181-200) from a previous study (EVYLLDTSIQSDHREIEGRV; UniProt Q8NBP7 181-200, looked up, fragment)
- LDL-R promoting effect (previous study) (LDL-R [1]): modest LDL-R promoting effect

Substance: (aa368-390): peptide of catalytic segment of hPCSK9 (aa368-390) from a previous study (IIGASSDCSTCFVSQSGTSQAAA; UniProt Q8NBP7 368-390, looked up, fragment)
- LDL-R promoting effect (previous study) (LDL-R [1]): modest LDL-R promoting effect

Substance: Captavidin: avidin analog with binding affinity towards biotin
- maximal quenching of fluorescence intensity of (IIId) [2]: 75.5%

Substance: FI-EGF-A: 5-Carboxy Fluorescein N-terminally labeled 42 aa EGF-A domain peptide of hLDL-R (aa314-355)
- LDL-R level versus DMSO control (LDL-R [3]; HepG2, 12 μg/ml, 24 h, standardized against actin, FIG. 13A): significant up regulation of the LDL-R
- restoration of LDL-R level after rec-PCSK9 (LDL-R [4]; HuH7 cells, rec-PCSK9 20 μg/ml, increasing amounts of FI-EGF-A, FIG. 13B): partly restored gradually
- PCSK9 level versus DMSO control (PCSK9): marked up regulation of PCSK9
- complex formation with recPCSK9 [5]: forms a stable complex

Substance: GEDIIGASSDCSTCFVSQSG [CP3]
- LDL-R promoting activity (LDL-R [3]; HepG2, 5.5 μM, FIG. 16): modest but significant LDL-R promoting activity
- rescue of LDL-R level following degradation by externally added PCSK9 protein (LDL-R [4]; cell line not stated at the place (HepG2 or HuH7)): can rescue LDL-R level to a significant level

Substance: Nutravidin: avidin analog with binding affinity towards biotin
- maximal quenching of fluorescence intensity of (IIId) [2]: 85%

Substance: ^365GEDIIGASSDASTCFVSQSG^384 [CP3-C/A]
- LDL-R promoting effect of acyclic mutant compared with CP3 (LDL-R [3]; HepG2, FIG. 16): completely lost

Substance: avidin: biotin-binding protein
- quenching of fluorescence intensity of (IIId) [2]: ~98%

Substance: h insulin: control peptide which does not bind with biotin
- quenching of fluorescence intensity of (IIId) [2]: 30%

Substance: streptavidin: avidin analog with binding affinity towards biotin
- maximal quenching of fluorescence intensity of (IIId) [2]: ~81.4%
- Kd [6]: ~0.1 nM
